Results published in patent publication US11919905B2, “Substituted benzo[f]imidazo[1,2-a][1,4]diazepines as anesthetics” (HANGZHOU ADAMERCK PHARMLABS INC., priority 2017, dated 2024).

Tests used:
ICR mice [1] = assay: Disappearance of righting reflex in mice induced by drugs (single i.v. bolus); assay type: in vivo; conditions: 100 mg/kg single bolus via tail vein, male ICR mice
Procedure: After ICR mice (male, 18-25 g) were fast injected with the same dose (100 mg/kg) of the test drug in a single bolus via the tail vein, the incubation period and the duration of disappearance of the righting reflex in mice were recorded. Wherein, the incubation period refers to the time from the start of administration to the disappearance of the animal's righting reflex, and the duration refers to the time from the disappearance of the righting reflex to the recovery.

mice [2] = assay: Multiple (9 times) i.v. administrations: duration of disappearance of righting reflex in mice; assay type: in vivo
Procedure: Animals in each group were given the corresponding drug solution multiple times by the tail vein injection (i.v.) in accordance with the corresponding group, 0.1 ml per mouse each time, for 9 times of consecutive injections (the administration group mice were injected when the righting reflex was recovered). The durations of each disappearance of righting reflex were recorded, and the data was expressed as an average.

mice [3] = assay: Single i.v. administration: autonomous activity of mice; assay type: in vivo
Procedure: Animals in each group were tested for their autonomous activities, each mouse for 10 minutes. After that, the animals in each group were given a single corresponding drug solution by the tail vein injection (i.v.) according to the corresponding group, 0.1 ml per 10 g body weight, and the autonomous activity of the mice was measured immediately after the administration, and the recording time was 50 min. Data were expressed as mean±standard deviation. Wherein, the dosage of propofol was 20 mg/kg.

ICR mice [4] = assay: Effective dose and lethal dose of intravenous administration in mice; assay type: in vivo
Procedure: ICR mice (males, 18-25 g) were randomly grouped and were fast given a single bolus of different doses of test drug via the tail vein, and the lowest dose causing the righting reflex to disappear (effective dose) and the dose causing animal death (lethal dose) were recorded, and the treatment windows (lethal dose/effective dose) were calculated.

mice [5] = assay: Multiple (10 times) i.v. administrations: autonomous activity of mice; assay type: in vivo
Procedure: Animals in each group were given the corresponding drug solution multiple times by the tail vein injection (i.v.) in accordance with the corresponding group, 0.1 ml per mouse each time, for ten times of consecutive injections (the administration group mice were injected when the righting reflex was recovered). Then the autonomous activity of mice was measured immediately and the recording time was 50 minutes. Data were expressed as mean±standard deviation.

[6] = background statement; cited from earlier work
[7] = 50 mg/kg i.v., administration 1
[8] = 50 mg/kg i.v., administration 2
[9] = 50 mg/kg i.v., administration 3
[10] = 50 mg/kg i.v., administration 4
[11] = 50 mg/kg i.v., administration 5
[12] = 50 mg/kg i.v., administration 6
[13] = 50 mg/kg i.v., administration 7
[14] = 50 mg/kg i.v., administration 8
[15] = 50 mg/kg i.v., administration 9
[16] = 75 mg/kg i.v., administration 1
[17] = 75 mg/kg i.v., administration 2
[18] = 75 mg/kg i.v., administration 3
[19] = 75 mg/kg i.v., administration 4
[20] = 75 mg/kg i.v., administration 5
[21] = 75 mg/kg i.v., administration 6
[22] = 75 mg/kg i.v., administration 7
[23] = 75 mg/kg i.v., administration 8
[24] = 75 mg/kg i.v., administration 9
[25] = 100 mg/kg i.v., administration 1
[26] = 100 mg/kg i.v., administration 2
[27] = 100 mg/kg i.v., administration 3
[28] = 100 mg/kg i.v., administration 4
[29] = 100 mg/kg i.v., administration 5
[30] = 100 mg/kg i.v., administration 6
[31] = 100 mg/kg i.v., administration 7
[32] = 100 mg/kg i.v., administration 8
[33] = 100 mg/kg i.v., administration 9
[34] = single bolus via tail vein, male ICR mice
[35] = 20 mg/kg i.v., administration 1
[36] = 20 mg/kg i.v., administration 2
[37] = 20 mg/kg i.v., administration 3
[38] = 20 mg/kg i.v., administration 4
[39] = 20 mg/kg i.v., administration 5
[40] = 20 mg/kg i.v., administration 6
[41] = 20 mg/kg i.v., administration 7
[42] = 20 mg/kg i.v., administration 8
[43] = 20 mg/kg i.v., administration 9

## COC(=O)CC[C@@H]1N=C(c2ccccn2)c2cc(F)c(C)cc2-n2c(C)cnc21.Cc1ccc(S(=O)(=O)O)cc1 [Compound 1-2]
ICR mice [1]
  Duration (time from disappearance of righting reflex to recovery): 6.02 min
  Incubation period (time from start of administration to disappearance of righting reflex): 0.52 min
Mice [2]; [7]
  Percentage of extension of righting reflex disappearance: 100%
  righting reflex disappearance time: 2.5 min
Mice [2]; [8]
  Percentage of extension of righting reflex disappearance: 179%
  righting reflex disappearance time: 4.4 min
Mice [2]; [9]
  Percentage of extension of righting reflex disappearance: 192%
  righting reflex disappearance time: 4.8 min
Mice [2]; [10]
  Percentage of extension of righting reflex disappearance: 227%
  righting reflex disappearance time: 5.6 min
Mice [2]; [11]
  Percentage of extension of righting reflex disappearance: 237%
  righting reflex disappearance time: 5.9 min
Mice [2]; [12]
  Percentage of extension of righting reflex disappearance: 208%
  righting reflex disappearance time: 5.2 min
Mice [2]; [13]
  Percentage of extension of righting reflex disappearance: 268%
  righting reflex disappearance time: 6.6 min
Mice [2]; [14]
  Percentage of extension of righting reflex disappearance: 260%
  righting reflex disappearance time: 6.5 min
Mice [2]; [15]
  Percentage of extension of righting reflex disappearance: 268%
  righting reflex disappearance time: 6.6 min
Mice [2]; 75 mg/kg dose group, after 6-7 administrations, vs propofol 20 mg/kg
  disappearance time of righting reflex as share of that of the propofol group: 65-70%
Mice [2]; [16]
  Percentage of extension of righting reflex disappearance: 100%
  righting reflex disappearance time: 5.3 min
Mice [2]; [17]
  Percentage of extension of righting reflex disappearance: 128%
  righting reflex disappearance time: 6.7 min
Mice [2]; [18]
  Percentage of extension of righting reflex disappearance: 159%
  righting reflex disappearance time: 8.4 min
Mice [2]; [19]
  Percentage of extension of righting reflex disappearance: 173%
  righting reflex disappearance time: 9.1 min
Mice [2]; [20]
  Percentage of extension of righting reflex disappearance: 194%
  righting reflex disappearance time: 10.2 min
Mice [2]; [21]
  Percentage of extension of righting reflex disappearance: 219%
  righting reflex disappearance time: 11.5 min
Mice [2]; [22]
  Percentage of extension of righting reflex disappearance: 231%
  righting reflex disappearance time: 12.1 min
Mice [2]; [23]
  Percentage of extension of righting reflex disappearance: 211%
  righting reflex disappearance time: 11.1 min
Mice [2]; [24]
  Percentage of extension of righting reflex disappearance: 211%
  righting reflex disappearance time: 11.1 min
Mice [2]; [25]
  Percentage of extension of righting reflex disappearance: 100%
  righting reflex disappearance time: 8.9 min
Mice [2]; [26]
  Percentage of extension of righting reflex disappearance: 121%
  righting reflex disappearance time: 10.8 min
Mice [2]; [27]
  Percentage of extension of righting reflex disappearance: 154%
  righting reflex disappearance time: 13.8 min
Mice [2]; [28]
  Percentage of extension of righting reflex disappearance: 177%
  righting reflex disappearance time: 15.8 min
Mice [2]; [29]
  Percentage of extension of righting reflex disappearance: 181%
  righting reflex disappearance time: 16.2 min
Mice [2]; [30]
  Percentage of extension of righting reflex disappearance: 240%
  righting reflex disappearance time: 21.5 min
Mice [2]; [31]
  Percentage of extension of righting reflex disappearance: 234%
  righting reflex disappearance time: 20.9 min
Mice [2]; [32]
  Percentage of extension of righting reflex disappearance: 238%
  righting reflex disappearance time: 21.2 min
Mice [2]; [33]
  Percentage of extension of righting reflex disappearance: 236%
  righting reflex disappearance time: 21.1 min
Mice [2]; each dose group vs propofol group
  accumulation effect (prolonged rate of righting reflex disappearance time after multiple administrations): lower than that of propofol
Mice [2]; i.v., 50-100 mg/kg
  dose dependence of duration of righting reflex disappearance: dose-dependent
Mice [2]; repeated i.v. administration, each dose group
  number of consecutive administrations after which duration of righting reflex disappearance reached steady state: 5-6
Mice [3]; single i.v. 50 mg/kg (low-dose group)
  time after administration until autonomous activity returned to normal level: 15 min
Mice [3]; single i.v. 50 mg/kg-100 mg/kg, within 10 minutes of injection
  total distance of autonomous activity compared with blank group: significantly lower than that of the blank group
Mice [3]; single i.v. 75 mg/kg (medium-dose group)
  time after administration until autonomous activity returned to normal level: 35 min
Mice [3]; single i.v. 100 mg/kg (high-dose group), 50 min test period
  autonomous activity compared with blank group: consistently lower than that of the blank group during the test period
ICR mice [4]; Mus musculus, iv, single bolus via tail vein, male ICR mice, read-out: Effective dose (lowest dose causing the righting reflex to disappear)
  minimal effective dose: 40 mg/kg
ICR mice [4]; mice, i.v.
  effective dose reduced, compared to remimazolam (p-toluenesulfonate): 33.3%
  lethal dose increased, compared to remimazolam (p-toluenesulfonate): 64%
  treatment window increased, compared to remimazolam (p-toluenesulfonate): 2.5 times
ICR mice [4]; [34]
  Lethal dose (dose causing animal death): 360 mg/kg
  Treatment window (lethal dose/effective dose): 9
Mice [5]; 10 consecutive i.v. injections, 50 mg/kg
  time after administration until autonomous activity returned to normal levels: 15 to 20 min
Mice [5]; 10 consecutive i.v. injections, 100 mg/kg, test period 50 minutes
  return of autonomous activity to normal levels: did not return to normal levels during the test period
Mice [5]; multiple i.v. administrations, vs propofol
  recovery of the number of autonomous activities and the rest time after multiple administrations: better than that of propofol

## CC(C)c1cccc(C(C)C)c1O [Propofol, reference compound]
Mice [2]; [35]
  Percentage of extension of righting reflex disappearance: 100%
  righting reflex disappearance time: 4.0 min
Mice [2]; [36]
  Percentage of extension of righting reflex disappearance: 144%
  righting reflex disappearance time: 5.8 min
Mice [2]; [37]
  Percentage of extension of righting reflex disappearance: 259%
  righting reflex disappearance time: 10.4 min
Mice [2]; [38]
  Percentage of extension of righting reflex disappearance: 300%
  righting reflex disappearance time: 12.1 min
Mice [2]; [39]
  Percentage of extension of righting reflex disappearance: 292%
  righting reflex disappearance time: 11.7 min
Mice [2]; [40]
  Percentage of extension of righting reflex disappearance: 378%
  righting reflex disappearance time: 15.2 min
Mice [2]; [41]
  Percentage of extension of righting reflex disappearance: 439%
  righting reflex disappearance time: 17.6 min
Mice [2]; [42]
  Percentage of extension of righting reflex disappearance: 404%
  righting reflex disappearance time: 16.2 min
Mice [2]; [43]
  Percentage of extension of righting reflex disappearance: 426%
  righting reflex disappearance time: 17.1 min
Mice [3]; single i.v. 20 mg/kg
  time after administration at which mice were awake: 5 to 10 min
  time after administration until autonomic activities basically recovered: 15 min

## COC(=O)CC[C@@H]1N=C(c2ccccn2)c2cc(Br)ccc2-n2c(C)cnc21.O=S(=O)(O)c1ccccc1 [Remimazolam (besylate), Remimazolam, reference compound]
ICR mice [1]
  Duration (time from disappearance of righting reflex to recovery): 10.61 min
  Incubation period (time from start of administration to disappearance of righting reflex): 0.64 min
ICR mice [4]; [34]
  Effective dose (lowest dose causing the righting reflex to disappear): 60 mg/kg
  Lethal dose (dose causing animal death): 280 mg/kg
  Treatment window (lethal dose/effective dose): 4.6
[6]
  side effects in preclinical animal experiments: limb jitters, head tilting, opisthotonus

## COC(=O)CC[C@@H]1N=C(c2ccccn2)c2cc(Br)ccc2-n2c(C)cnc21.Cc1ccc(S(=O)(=O)O)cc1 [Remimazolam (p-toluenesulfonate), Remimazolam, reference compound]
ICR mice [1]
  Duration (time from disappearance of righting reflex to recovery): 9.43 min
  Incubation period (time from start of administration to disappearance of righting reflex): 0.73 min
ICR mice [4]; [34]
  Effective dose (lowest dose causing the righting reflex to disappear): 60 mg/kg
  Lethal dose (dose causing animal death): 220 mg/kg
  Treatment window (lethal dose/effective dose): 3.6
[6]
  side effects in preclinical animal experiments: limb jitters, head tilting, opisthotonus
